Each structure is given as a SMILES string. Converted amounts (≈) assume the structure as drawn.

The subject of assay [1] is CCRF-CEM. The assay is described as follows: Tested for the ability to inhibit HIV-1 (IIIB) replication in CEM cells. It counts as functional, cell-based. The settings on record: Homo sapiens.
In assay [2] the test system is CCRF-CEM. The assay is described as follows: Tested for the ability to inhibit HIV-2 (ROD) replication in CEM cells. It counts as functional, cell-based. The conditions noted are these: Homo sapiens.
Assay [3] addresses Human immunodeficiency virus type 1 reverse transcriptase (Human immunodeficiency virus 1, UniProt Q72547). The assay is described as follows: Tested against HIV-1 reverse transcriptase (HIV-1 RT) with poly(rA)/(dT)12-18 as template and [methyl-3H]-dTTP as competing substrate. It counts as functional.

With `Nc1nc(O)c2ncn([C@H]3CC(O)C(COP(=S)(S)OP(=O)(O)OP(=O)(O)O)O3)c2n1` (stereo not given in full), the EC50 in assay [1] and in assay [2] was greater than 50 µg/mL each time.

As to `Nc1ncnc2c1ncn2[C@H]1CC(O)C(COP(=S)(S)OP(=O)(O)OP(=O)(O)O)O1` (stereo not given in full), the figures for the EC50 in assay [1] and in assay [2] were 43 µg/mL (≈ 82.2 µM) and 50 µg/mL (≈ 95.5 µM), respectively. Take `Nc1ccn([C@H]2CC(O)C(COP(=S)(S)OP(=O)(O)OP(=O)(O)O)O2)c(=O)n1` (stereo not given in full): the EC50 in assay [1] is 97 µg/mL (≈ 194 µM); in assay [2], 123 µg/mL (≈ 246 µM). The matching figures for `Cc1cn([C@H]2CC(O)C(COP(=S)(S)OP(=O)(O)OP(=O)(O)O)O2)c(=O)[nH]c1=O` (stereo not given in full): greater than 50 µg/mL and greater than 50 µg/mL. For the compound `Cc1cn([C@H]2CC(N=[N+]=[N-])C(COP(=S)(S)OP(=O)(O)OP(=O)(O)O)O2)c(=O)[nH]c1=O` (stereo not given in full), in assay [1], the response was half-maximal at 0.5 µg/mL (≈ 0.927 µM) (EC50). The half-maximal inhibitory concentration (IC50) in assay [3] stood at 940 nM. On to `Nc1nc(O)c2ncn(C3O[C@H](COP(=S)(S)OP(=O)(O)OP(=O)(O)O)[C@@H](O)[C@H]3O)c2n1` (stereo not given in full), for which the EC50 in assay [1] and in assay [2] was greater than 50 µg/mL each time. Take `Nc1ncnc2c1ncn2C1O[C@H](COP(=S)(S)OP(=O)(O)OP(=O)(O)O)[C@@H](O)[C@H]1O` (stereo not given in full): the EC50 in assay [1] worked out at 42 µg/mL (≈ 77.9 µM); in assay [2] it was 116 µg/mL (≈ 215 µM). With `Cc1cn([C@H]2C[C@H](N=[N+]=[N-])[C@@H](CO[P@](=O)(O)O[P@](=O)(O)OP(=O)(O)O)O2)c(=O)[nH]c1=O` [ZIDOVUDINE TRIPHOSPHATE], the 50% inhibitory concentration (IC50) in assay [3] was 3 nM. That is a single-digit nanomolar value.

What is called EC50 is the concentration needed to bring the measured effect to its halfway point. A high value points to lower potency in that assay. The IC50 is the midpoint of a concentration-inhibition curve. High values mean a need for much substance, low ones inhibition by little substance.

These data come from ChEMBL document CHEMBL1127397, “The synthesis of nucleoside 5'-O-(1,1-dithiotriphosphates)” (J Med Chem, 1994).
